Results on 2 molecules are retold here after US8044080B2, “Isoxazoline derivative and novel process for its preparation” (LG Life Sciences Ltd., priority 2005, dated 2011).

By ED50 is commonly meant the dose that gives a 50% effect, or the effect in half of the subjects. Read a high ED50 as weaker potency.

Series [1] can be described thus: Stability test of amorphous and crystalline form under severe condition (60° C.). It counts as physicochemical. The conditions noted are these: after 28 days. The source says:
Therefore, it should be understood that the crystalline form has better stability than the amorphous form enough to be used for the composition of inhibitor or therapeutic agent.

Series [2] relates to LPS-Induced Acute Hepatitis in Mice. Kind of series: Treatment effect on LPS-induced acute hepatitis in mice (blood plasma ALT activity). The conditions noted are these: Mus musculus, LPS/D-Gln model, plasma ALT 8 hours after drug injection. It counts as in vivo, Male Balb/c mice.
Series [3] has as its system Fas Antibody-Induced Acute Hepatitis in Mice. Kind of series: Treatment effect on Fas antibody-induced acute hepatitis in mice (blood plasma ALT activity). It counts as in vivo, Male Balb/c mice. The conditions noted are these: Mus musculus, Fas antibody model, plasma ALT 8 hours after drug injection.

SMILES strings stand for the structures.

In the case of `CC(C)[C@@]1(C(=O)N[C@H]2CC(=O)O[C@]2(O)CF)CC(c2nccc3ccccc23)=NO1` [(4S,5S)-5-fluoromethyl-5-hydroxy-4-({[(5R)-5-isopropyl-3-(1-isoquinolinyl)-4,5-dihydro-5-isoxazolyl]carbonyl}amino)-2-dihydrofuranone], in series [1], the “amount destroyed in stability test” value was found to be 50% and the “quantitative amount in stability test” value is “not decreased at all”.
With `CC(C)[C@@]1(C(=O)N[C@H]2CC(=O)O[C@]2(O)CF)CC(c2nccc3ccccc23)=NO1` [compound of formula (1), (4S,5S)-5-fluoromethyl-5-hydroxy-4-({[(5R)-5-isopropyl-3-(1-isoquinolinyl)-4,5-dihydro-5-isoxazolyl]carbonyl}amino)-2-dihydrofuranone], the ED50 in series [2] (intravenous administration) turned out to be 0.015 mg/kg; in series [2] (oral administration), 0.02 mg/kg; in series [3] (intravenous administration), 0.003 mg/kg; in series [3] (oral administration) it was 0.018 mg/kg.
